The supplement of paper PMC6045584
± gives the standard deviation of the averaged measurements.

What was measured:
[1] = compound: Cn1ncnc1[C@H]1c2n[nH]c(=O)c3cc(F)cc(c23)N[C@@H]1c1ccc(F)cc1 [BMN-673]; test: surviving fraction relative to DMSO-only wells; higher = less growth inhibition; details: exposure time: 5 days
Outline: (§1)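 Continuous five-day exposure to inhibitors at 0.5, 1, 5, 10, 50, 100, 500 and 1000 nM started 24 hours after log-phase tumour cell lines were seeded at 250–500 cells per well in 384-well plates. Luminescence was read after 10 minutes at room temperature. Viability is given as surviving fraction, meaning CellTiter-Glo luminescence normalised to the median of DMSO-only wells.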

[2] = compound: C[C@H](CN(C)C)Oc1nc(Nc2cc3cccc(Cl)c3cn2)cnc1C#N; test: as above; details: exposure time: 5 days
Outline: as §1

Test System	surviving fraction ([1]; 0.5 nM)	surviving fraction ([1]; 1 nM)	surviving fraction ([1]; 5 nM)	surviving fraction ([1]; 10 nM)	surviving fraction ([1]; 50 nM)	surviving fraction ([1]; 100 nM)	surviving fraction ([1]; 500 nM)	surviving fraction ([1]; 1000 nM)	surviving fraction ([2]; 0.5 nM)	surviving fraction ([2]; 1 nM)	surviving fraction ([2]; 5 nM)	surviving fraction ([2]; 10 nM)	surviving fraction ([2]; 50 nM)	surviving fraction ([2]; 100 nM)	surviving fraction ([2]; 500 nM)	surviving fraction ([2]; 1000 nM)
PCI30 HEADNECK	1.01 ± 0.071	1.04 ± 0.092	0.91 ± 0.063	0.737 ± 0.056	0.585 ± 0.025	0.495 ± 0.0052	1.04 ± 0.025	1.08 ± 0.069	0.99 ± 0.044	0.999 ± 0.019	1.06 ± 0.059	1.06 ± 0.11	0.9137 ± 0.0042	0.827 ± 0.079	0.337 ± 0.021	0.322 ± 0.017
MCF7 BREAST	0.952 ± 0.053	0.95 ± 0.069	0.838 ± 0.029	0.802 ± 0.046	0.756 ± 0.03	0.732 ± 0.026	0.679 ± 0.024	0.62 ± 0.011	0.896 ± 0.012	0.87 ± 0.042	0.873 ± 0.069	0.881 ± 0.063	0.904 ± 0.026	0.813 ± 0.046	0.751 ± 0.016	0.697 ± 0.023
HOSMNG BONE	1.07 ± 0.056	1.04 ± 0.029	0.968 ± 0.017	1.01 ± 0.019	1.03 ± 0.031	1.05 ± 0.046	0.849 ± 0.047	0.645 ± 0.023	0.943 ± 0.14	0.937 ± 0.064	0.984 ± 0.072	0.964 ± 0.047	1.02 ± 0.072	1.05 ± 0.079	0.983 ± 0.096	0.0657 ± 0.0067
SJSA1 BONE	1.67 ± 0.078	1.72 ± 0.018	1.72 ± 0.12	1.86 ± 0.1	0.969 ± 0.054	1.27 ± 0.022	1.46 ± 0.06	1.12 ± 0.031	1.49 ± 0.044	1.65 ± 0.083	1.6 ± 0.17	1.57 ± 0.02	1.63 ± 0.14	1.74 ± 0.039	1.63 ± 0.2	1.69 ± 0.082
HCT15 LARGE INTESTINE	1.09 ± 0.078	1.03 ± 0.086	1.06 ± 0.015	0.945 ± 0.021	0.584 ± 0.14	0.44 ± 0.058	0.146 ± 0.022	0.102 ± 0.0078	1.05 ± 0.022	1.04 ± 0.05	1.04 ± 0.022	1.05 ± 0.038	1.06 ± 0.051	1.06 ± 0.069	0.998 ± 0.057	0.799 ± 0.11
SG32 HEADNECK	1.13 ± 0.067	0.975 ± 0.17	1.08 ± 0.29	0.985 ± 0.094	0.872 ± 0.12	1.22 ± 0.82	0.622 ± 0.0068	0.49 ± 0.044	1.17 ± 0.16	1.16 ± 0.24	1.06 ± 0.078	1.03 ± 0.1	1.05 ± 0.081	1.16 ± 0.23	0.748 ± 0.066	0.653 ± 0.11
CADOES1 SOFT TISSUE	0.979 ± 0.076	0.942 ± 0.05	0.745 ± 0.18	0.653 ± 0.094	0.378 ± 0.054	0.29 ± 0.027	0.135 ± 0.033	0.073 ± 0.013	0.789 ± 0.054	0.94 ± 0.018	0.867 ± 0.069	0.894 ± 0.031	0.814 ± 0.14	0.726 ± 0.056	0.294 ± 0.048	0.148 ± 0.015
CME SYNOVIAL	0.831 ± 0.068	0.528 ± 0.039	0.234 ± 0.018	0.211 ± 0.035	0.243 ± 0.024	0.211 ± 0.012	0.201 ± 0.0059	0.285 ± 0.0076	1.21 ± 0.15	1.3 ± 0.16	1.28 ± 0.11	1.36 ± 0.18	1.32 ± 0.11	1.47 ± 0.17	1.14 ± 0.059	1.02 ± 0.15
HCC1806 BREAST	0.904 ± 0.043	0.875 ± 0.021	0.451 ± 0.035	0.313 ± 0.021	0.234 ± 0.0079	0.186 ± 0.0061	0.171 ± 0.017	0.168 ± 0.015	1.14 ± 0.095	1.09 ± 0.062	1.25 ± 0.2	1.13 ± 0.055	0.991 ± 0.068	0.633 ± 0.069	0.0587 ± 0.008	0.0547 ± 0.0029
MDAMB361 BREAST	0.804 ± 0.064	0.806 ± 0.018	0.829 ± 0.013	0.82 ± 0.041	0.856 ± 0.026	0.798 ± 0.07	0.782 ± 0.038	0.764 ± 0.062	0.818 ± 0.021	0.744 ± 0.048	0.752 ± 0.058	0.775 ± 0.053	0.724 ± 0.03	0.547 ± 0.056	0.481 ± 0.02	0.488 ± 0.04
